What was measured:
DLD1 cells [1] = assay: Long term response to mitotic stress (colony formation); type: cell-based, human; conditions: 4 hour exposure 12 hours after release, colonies over three weeks
Protocol: Cells synchronized by a sequential thymidine-aphidicolin block were either not exposed to mitotic stress or exposed to 0.5 μg/ml nocodazole or the TAXOL™ drug for a 4 hour period starting 12 hours after aphidicolin release or release from the G1-S block. The short term response to mitotic stress was evaluated by examining the cell cycle profile at the time of nocodazole removal, 24 or 48 hours later. At the indicated time points, the cells were recovered from the tissue culture plates with trypsin, fixed in 70% ethanol for 10 minutes and incubated with propidium iodide and DNase-free RNase (Roche) in PBS containing 1% fetal bovine serum and 2% Tween-20. The nuclear morphology of the cells was visualized by fluorescence microscopy. The DNA content of the cell population was determined by flow cytometry.
To evaluate the long term response of the cells to survive exposure to mitotic stress, at the time of nocodazole removal, the cells were replated at a density of 200 cells per 100 mm diameter tissue culture dish. The cells were allowed to replicate and colonies were counted 3 weeks later.
To the long term response of the cells to survive exposure to mitotic stress, synchronized DLD1-neo and DLD1-chfr cells were transiently exposed to nocodazole or the TAXOL™ drug, as described above (e.g., exposed to nocodazole or the TAXOL™ drug 12 hours after release from the G1-S block for a 4 hour period). At the time of nocodazole removal, the cells were replated at a density of 200 cells per 100 mm diameter tissue culture dish and then allowed to form colonies over a three-week period.

[2] = test system: eight human cancer cell lines (SW480, DLD1, HT29, HCT116, SAOS2, U20S, IMR5 and NGP); assay: Mitotic index of unsynchronized human cancer cell lines treated with nocodazole; type: cell-based; conditions: 16 hours after nocodazole
Protocol: All cancer cells were grown in DMEM supplemented with glutamine, penicillin, streptomycin and 10% fetal bovine serum (Life Sciences). Normal human epidermal keratinocytes and osteoblasts were grown in KGM2 and OGM media, respectively (Clonetics). The cells were examined either non-synchronized or synchronized. For synchronization, the cells were treated with 2 mM thymidine for 16 hours, then with 0.25 mM thymidine/deoxycytidine for 9 hours, and then with 0.5 μg/ml aphidicolin for 20–24 hours. The cells were washed three times with PBS between each step [Janss et al., 1998, Exp. Cell Res., 243:29–38]. To induce mitotic stress, synchronized or non-synchronized cells were exposed to 0.5 μg/ml nocodazole, 5 μM of the TAXOL™ drug or 0.5 μg/ml colcemid. Cells were grown on 8-well culture slides coated with human fibronectin (Becton Dickinson) and were examined as either non-synchronized or synchronized cells. […] The slides were sealed with coverslips using Fluoromount-G (Upstate Biotechnology) and visualized with a fluorescence microscope (Leica). […] The cells were scored for Mitotic Index. […]

DLD1 cells [3] = assay: Centrosome staining of synchronized DLD1-neo and DLD1-chfr cells; type: cell-based, human; conditions: nocodazole added 12 hours after aphidicolin release, 14 hour time point
Protocol: Cells were grown on 8-well culture slides coated with human fibronectin (Becton Dickinson) and were examined as either non-synchronized or synchronized cells. The cells were prepared for microscopy by washing them three times with KM buffer (10 mM MES, pH 6.2, 10 mM NaCl, 1.5 mM MgCl2, 2.5% glycerol), fixing with 1% paraformaldehyde in 0.5×KM buffer for 15 minutes, washing once with 0.2% Triton X-100 in phosphate buffer saline (PBS) for 20 minutes and three times with PBS. For centrosome staining, the cells were incubated for 1 hour with a 1:500 dilution of autoimmune serum Ab598 in PBS, washed three times with PBS, incubated with a Texas Red-conjugated anti-human secondary antibody (Vector Labs) diluted 1:200 in PBS and washed again three times with PBS. For DNA staining, the cells were incubated with DAP1 ([…] in PBS). The slides were sealed with coverslips using Fluoromount-G (Upstate Biotechnology) and visualized with a fluorescence microscope (Leica). Separate images, acquired using filters corresponding to the excitation maxima of DAP1 and Texas Red, were merged with IRIX image tools (Silicon Graphics).
To correlate the timing of the Chfr effect with progress through the cell cycle, synchronized cells were stained with DAP1 to monitor chromosome condensation and with an antibody that recognizes the centrosomes. […]

cyclin B/cdc2 = assay: Cdc2 kinase activity in synchronized DLD1 cells; type: cell-based, human; conditions: synchronized DLD1-neo and DLD1-chfr cells treated 12 hours after release from the G1-S block
Protocol: Whole cell extracts, prepared as described above, were incubated with anti-cyclin B antibody (Santa Cruz) coupled to protein G beads (Pharmacia) in CL buffer for 1 hour. The beads were washed three times with CL buffer and then twice with cdc2 kinase (CK) buffer (50 mM HEPES, pH 7.0, 10 mM MgCl2, 10 mM MnCl2, 200 mM NaCl). The beads were then incubated with 1 μg histone H1 (Upstate Biotechnology) in CK buffer supplemented with 30 mM DTT, 0.06 μM ATP and 1 μCi ^32P-γ-ATP for 20 minutes at 30° C., at which time the reactions were subjected to denaturing gel electrophoresis. Phosphorylation of histone H1 was detected by autoradiography.

Chfr = molecular target: T1, Chfr (Homo sapiens, UniProt Q96EP1); assay: Ubiquitin-protein ligase assay in vitro; type: biochemical; conditions: crude bacterial lysates with E1, GST-Chfr, ubiquitin and ATP
T1 construct: Reactions were performed with full-length Chfr fused to GST; made in house; host or cells: E. coli (crude bacterial lysates)
T1 sequence (Q96EP1 1-664): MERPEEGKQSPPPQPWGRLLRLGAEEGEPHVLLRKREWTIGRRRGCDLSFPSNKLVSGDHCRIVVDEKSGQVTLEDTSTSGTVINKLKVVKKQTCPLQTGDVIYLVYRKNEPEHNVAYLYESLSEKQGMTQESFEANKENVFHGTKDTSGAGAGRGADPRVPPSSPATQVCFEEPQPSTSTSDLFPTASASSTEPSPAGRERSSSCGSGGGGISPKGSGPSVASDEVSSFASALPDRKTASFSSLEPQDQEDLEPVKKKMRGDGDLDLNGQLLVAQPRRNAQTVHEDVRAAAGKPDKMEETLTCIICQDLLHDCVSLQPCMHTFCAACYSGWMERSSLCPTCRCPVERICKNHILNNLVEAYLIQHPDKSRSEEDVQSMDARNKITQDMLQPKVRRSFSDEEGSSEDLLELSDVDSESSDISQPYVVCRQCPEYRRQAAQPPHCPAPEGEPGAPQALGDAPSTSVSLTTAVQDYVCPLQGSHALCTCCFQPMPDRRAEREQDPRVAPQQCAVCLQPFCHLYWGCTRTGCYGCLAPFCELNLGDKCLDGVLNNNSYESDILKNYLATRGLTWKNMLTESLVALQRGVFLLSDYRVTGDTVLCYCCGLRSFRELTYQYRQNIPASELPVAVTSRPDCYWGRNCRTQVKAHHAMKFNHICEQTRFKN
Protocol: Recombinant E. coli bacterial cells that have been genetically engineered to express the E1 ubiquitin-activating enzyme and the E2 ubiquitin-conjugating enzyme (either UbchD2 or Ubch8) and a […] comprised of glutathione S-transferase fused to the N-terminus of Chfr were lysed. The lysates were incubated in the presence of ubiquitin and ATP and the reaction allowed to proceed for 20 minutes at 30° C. GST-Chfr was captured on glutathione beads, eluted with SDS sample buffer, and resolved by SDS-PAGE. The SDS gel was immunoblotted with antibodies that recognize ubiquitin. Reactions were performed with full-length Chfr fused to GST and reactions were performed with Chfr lacking amino acid residues 1–280 of SEQ ID NO: 2, which contain the FHA domain.

Molecule | number of colony-forming units (CFUs) (DLD1 cells [1]; DLD1-chfr cells) | number of colony-forming units (CFUs) (DLD1 cells [1]; DLD1-neo cells) | mitotic index (fraction of cells that had condensed chromosomes) ([2]; cell lines that expressed wild-type Chfr) | mitotic index (fraction of cells that had condensed chromosomes) ([2]; cell lines with no detectable Chfr expression and U20S cells (variant chfr)) | centrosome separation (DLD1 cells [3]) | Cyclin B/cdc2 activity (cyclin B/cdc2) | ability of the E2 ubiquitin-conjugating enzyme to support ligase activity of Chfr (Chfr)
CC(=O)O[C@H]1C(=O)[C@@]2(C)[C@H]([C@H](OC(=O)c3ccccc3)[C@]3(O)C[C@H](OC(=O)[C@H](O)[C@@H](NC(=O)c4ccccc4)c4ccccc4)C(C)=C1C3(C)C)[C@]1(OC(C)=O)CO[C@@H]1C[C@@H]2O [TAXOL™ drug] | unaffected | decrease |  |  |  |  | 
COC(=O)Nc1nc2ccc(C(=O)c3cccs3)cc2[nH]1 [nocodazole] | unaffected | decrease | low | high | inhibited | high | 
Ubch8: E2 ubiquitin-conjugating enzyme |  |  |  |  |  |  | did not function in this assay

Source: US7176293B1, “Compositions and methods to enhance sensitivity of cancer cells to mitotic stress” (The Wistar Institute of Anatomy and Biology, priority 1999, dated 2007)
